Measurements from US20140135327A1, “N- (2 -AMINOPHENYL) BENZAMIDE DERIVATIVES AS HISTONE DEACETYLASE INHIBITORS” (CANCER RESEARCH TECHNOLOGY LIMITED, priority 2011, published 2014).

Experiments:
Type in all cases: biochemical
[1] = molecular target: HDAC 3 (Homo sapiens, UniProt O15379); assay: Caliper HDAC inhibitor profiling assay (microfluidic mobility-shift), HDAC 3; settings: 1 hour at room temperature, read-out: IC50 (μM) HDAC3
Experimental: The activity of the compounds of the invention against HDAC 3 (Class I) and HDAC 6 (Class II) can be determined using the Caliper Life Sciences HDAC inhibitor profiling assay, which utilises microfluidic mobility-shift detection.
Reaction buffer: 25 mM Tris/Cl, pH 8.0, 137 mM NaCl, 2.7 mM KCl, 1 mM MgCl2, 0.1 mg/ml BSA (fatty acid free).
Stop Buffer: 100 mM HEPES, pH 7.5, 10 mM EDTA, 0.04% Brij-35, 0.25% CR-3, and 2.5 μM Trichostatin A.
Stopped reactions were assembled in microtiter plate wells by adding 1 μL of the inhibitor compound in DMSO, 15 μL 2× Enzyme, and 15 μL 2× peptide. The reactions were incubated for 1 hour at room temperature, stopped with the addition of 45 μL Stop Solution, and read on the LabChip EZ Reader®. The curves were fit with sigmoidal dose response algorithm using GraphPad Prism.

[2] = molecular target: T1, HDAC 4-CAT (Homo sapiens, UniProt P56524); assay: Fluorescence-based HDAC isoform assay with electrophoretic separation, HDAC 4-CAT; settings: catalytic domain only, 1 μM FAM-labeled acetylated peptide, 17 h at 25° C.
T1 construct: For HDAC-4 and 7 only catalytic domains were expressed (HDAC-4 CAT and HDAC-7 CAT); 6xHis; made in house; host or cells: Sf9 cells (baculovirus)
T1 sequence (P56524 655-1084 limits assumed): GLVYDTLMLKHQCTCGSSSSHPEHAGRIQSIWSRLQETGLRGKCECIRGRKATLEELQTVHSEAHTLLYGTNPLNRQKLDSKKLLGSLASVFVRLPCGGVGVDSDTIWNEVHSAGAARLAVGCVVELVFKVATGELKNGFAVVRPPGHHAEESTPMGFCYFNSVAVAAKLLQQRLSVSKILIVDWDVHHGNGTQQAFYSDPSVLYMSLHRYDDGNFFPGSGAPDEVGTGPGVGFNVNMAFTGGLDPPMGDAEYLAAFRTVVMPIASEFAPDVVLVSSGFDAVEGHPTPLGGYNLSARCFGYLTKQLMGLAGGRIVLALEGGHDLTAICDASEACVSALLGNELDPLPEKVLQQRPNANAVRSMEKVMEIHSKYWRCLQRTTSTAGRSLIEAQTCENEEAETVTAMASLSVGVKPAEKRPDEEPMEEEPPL
Experimental: (§1) The inhibitory effects of the compounds of Examples 7 and 9 above on HDAC activity were determined using a fluorescence-based assay with electrophoretic separation of substrate and product carried out using a microfluidic system followed by quantitation of fluorescence intensity in the substrate and product peaks.
(§2) The assays were performed using isolated HDAC isoforms that had been expressed as 6×His-tagged fusion proteins in a baculovirus expression system in Sf9 cells. HDACs 1, 2, 3, 6, and 8 were expressed as full length fusion proteins. For HDAC-4 and 7 only catalytic domains were expressed (HDAC-4 CAT and HDAC-7 CAT). The HDAC10 fusion protein was expressed as a carboxy-terminal deletion of 38 amino acids (residues 632-669). HDAC3 was coexpressed with a fragment of the SMRT gene (residues 395-489) to generate enzymatically active protein. Purified proteins were incubated with 1 μM carboxyfluorescein (FAM)-labeled acetylated peptide substrate and test compound for 17 h at 25° C. in HDAC assay buffer containing 100 mM HEPES (pH 7.5), 25 mM KCl, 0.1% BSA, and 0.01% Triton X-100. […] Substrate and product were separated electrophoretically using a Caliper LabChip 3000 system with blue laser excitation and green fluorescence detection (CCD2). The fluorescence intensity in the substrate and product peaks was determined using the Well Analyzer software on the Caliper system. […]

[3] = molecular target: T2, HDAC 6 (Homo sapiens, UniProt Q9UBN7); assay: Fluorescence-based HDAC isoform assay with electrophoretic separation, HDAC 6; settings: isolated 6×His-tagged isoform, 1 μM FAM-labeled acetylated peptide, 17 h at 25° C.
T2 sequence (Q9UBN7 1-1215): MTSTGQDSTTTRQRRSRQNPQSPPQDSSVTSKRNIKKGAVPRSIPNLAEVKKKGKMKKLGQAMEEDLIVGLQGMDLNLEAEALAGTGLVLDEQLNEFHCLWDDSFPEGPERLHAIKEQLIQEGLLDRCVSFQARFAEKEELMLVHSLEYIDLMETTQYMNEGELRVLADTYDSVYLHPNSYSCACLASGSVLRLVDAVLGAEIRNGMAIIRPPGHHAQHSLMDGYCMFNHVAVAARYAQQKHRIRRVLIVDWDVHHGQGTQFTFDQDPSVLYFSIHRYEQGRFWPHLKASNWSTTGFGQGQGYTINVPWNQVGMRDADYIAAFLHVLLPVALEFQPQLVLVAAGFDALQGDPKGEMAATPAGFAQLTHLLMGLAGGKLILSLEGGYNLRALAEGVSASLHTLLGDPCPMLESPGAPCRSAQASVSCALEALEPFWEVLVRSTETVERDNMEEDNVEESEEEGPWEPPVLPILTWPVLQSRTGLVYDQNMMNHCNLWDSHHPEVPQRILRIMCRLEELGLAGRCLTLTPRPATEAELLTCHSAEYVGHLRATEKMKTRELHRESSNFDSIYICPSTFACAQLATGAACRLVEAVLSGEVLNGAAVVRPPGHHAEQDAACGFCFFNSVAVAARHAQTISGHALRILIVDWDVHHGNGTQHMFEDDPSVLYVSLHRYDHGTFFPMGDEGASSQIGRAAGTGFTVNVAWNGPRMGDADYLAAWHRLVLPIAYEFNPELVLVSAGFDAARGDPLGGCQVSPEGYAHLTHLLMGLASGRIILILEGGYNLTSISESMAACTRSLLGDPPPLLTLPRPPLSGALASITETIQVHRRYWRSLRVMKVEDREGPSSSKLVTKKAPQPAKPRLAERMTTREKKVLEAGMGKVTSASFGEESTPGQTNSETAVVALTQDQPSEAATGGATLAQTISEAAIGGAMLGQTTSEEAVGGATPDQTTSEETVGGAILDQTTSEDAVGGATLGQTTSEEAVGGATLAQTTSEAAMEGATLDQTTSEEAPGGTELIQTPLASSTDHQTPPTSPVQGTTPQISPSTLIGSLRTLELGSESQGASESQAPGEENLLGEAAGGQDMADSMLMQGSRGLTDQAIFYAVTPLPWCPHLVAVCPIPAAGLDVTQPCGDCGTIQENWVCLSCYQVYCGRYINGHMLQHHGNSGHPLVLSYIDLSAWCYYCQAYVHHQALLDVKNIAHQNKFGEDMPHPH
Experimental: as §1, §2

Sequence of HDAC 3 (O15379 whole entry, species assumed): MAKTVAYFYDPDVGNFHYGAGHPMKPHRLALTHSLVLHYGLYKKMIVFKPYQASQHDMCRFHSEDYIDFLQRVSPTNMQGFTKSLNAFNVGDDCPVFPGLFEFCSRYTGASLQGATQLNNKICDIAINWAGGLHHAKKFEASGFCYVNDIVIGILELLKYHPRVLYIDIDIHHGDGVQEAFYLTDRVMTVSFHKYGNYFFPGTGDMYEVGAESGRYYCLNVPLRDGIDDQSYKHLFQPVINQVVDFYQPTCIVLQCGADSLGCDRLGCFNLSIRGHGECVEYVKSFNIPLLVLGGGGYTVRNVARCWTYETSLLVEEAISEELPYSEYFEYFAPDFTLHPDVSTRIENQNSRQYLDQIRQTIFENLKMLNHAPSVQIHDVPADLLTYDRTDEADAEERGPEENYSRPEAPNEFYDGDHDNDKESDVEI
Sequence of HDAC 3 (Q9Y618 395-489 partner limits assumed, species assumed): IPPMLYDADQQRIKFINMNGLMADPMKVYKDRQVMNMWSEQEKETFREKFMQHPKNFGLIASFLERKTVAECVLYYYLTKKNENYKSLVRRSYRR

IC50 [1] | IC50 [2] | IC50 [3] | Structure (SMILES)
0.22 µM | 9.22 µM | > 30 µM | C=C1CN(Cc2ccc(C(=O)Nc3ccccc3N)cc2)C(=O)c2ccccc21 [Example 7, N-(2-Aminophenyl)-4-[(4-methylene-1-oxo-3,4-dihydroisoquino-2(1H)-yl)methyl]benzamide]
0.78 µM | > 30 µM | > 30 µM | C=C1CN(Cc2ccc(C(=O)Nc3ccccc3N)cc2)C(CC(=O)O)c2ccccc21 (stereo not drawn) [Example 9, [2-(4-{[(2-Aminophenyl)amino]carbonyl}benzyl)-4-methylene-1,2,3,4-tetra hydroisoquinolin-1-yl]acetic acid]
